Measured values as given in PubChem BioAssay AID328 (DTP/NCI, 2004).
Values joined by “and” are separate entries in the source; they are usually repeats but may differ in a detail not shown here. Equal entries are not always repeated. Toxic doses and inconclusive results are not listed. Rule for the calls: active = survival T/C of 150% or more; inactive = T/C below 125% in these data.

Test system: BDF1 mice, P388 leukemia ip, median survival T/C
Test: NCI In Vivo Anticancer Drug Screen. Data for tumor model P388 Leukemia (intraperitoneal) in B6D2F1 (BDF1) mice
Conditions: endpoint: median survival time, higher = longer survival
Summary of the method: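 Antitumour effect was judged in vivo: survival in drug-treated mice, normalised to that of vehicle-dosed controls, gives the reported T/C.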

[1] = dose: 100.0 mg/kg/injection, schedule: Q01DX009 (ip), vehicle: saline
[2] = dose: 100.0 mg/kg/injection, schedule: Q04DX003 (ip), vehicle: saline
[3] = dose: 200.0 mg/kg/injection, schedule: Q01DX009 (ip), vehicle: saline
[4] = dose: 200.0 mg/kg/injection, schedule: Q04DX003 (ip), vehicle: saline
[5] = dose: 50.0 mg/kg/injection, schedule: Q01DX009 (ip), vehicle: saline with Tween-80
[6] = dose: 100.0 mg/kg/injection, schedule: Q01DX009 (ip), vehicle: saline with Tween-80
[7] = dose: 200.0 mg/kg/injection, schedule: Q01DX009 (ip), vehicle: saline with Tween-80
[8] = dose: 400.0 mg/kg/injection, schedule: Q01DX009 (ip), vehicle: saline with Tween-80
[9] = dose: 400.0 mg/kg/injection, schedule: Q04DX003 (ip), vehicle: saline
[10] = dose: 100.0 mg/kg/injection, schedule: Q04DX003 (ip), vehicle: saline with Tween-80
[11] = dose: 200.0 mg/kg/injection, schedule: Q04DX003 (ip), vehicle: saline with Tween-80
[12] = dose: 400.0 mg/kg/injection, schedule: Q04DX003 (ip), vehicle: saline with Tween-80
[13] = dose: 100.0 mg/kg/injection, schedule: Q01DX009 (ip), vehicle: Klucel (hydroxypropylcellulose) (HPC)
[14] = dose: 100.0 mg/kg/injection, schedule: Q04DX003 (ip), vehicle: Klucel (hydroxypropylcellulose) (HPC)
[15] = dose: 200.0 mg/kg/injection, schedule: Q01DX009 (ip), vehicle: Klucel (hydroxypropylcellulose) (HPC)
[16] = dose: 200.0 mg/kg/injection, schedule: Q04DX003 (ip), vehicle: Klucel (hydroxypropylcellulose) (HPC)
[17] = dose: 400.0 mg/kg/injection, schedule: Q01DX009 (ip), vehicle: Klucel (hydroxypropylcellulose) (HPC)
[18] = dose: 400.0 mg/kg/injection, schedule: Q04DX003 (ip), vehicle: Klucel (hydroxypropylcellulose) (HPC)
[19] = dose: 50.0 mg/kg/injection, schedule: Q04DX003 (ip), vehicle: saline with Tween-80
[20] = dose: 400.0 mg/kg/injection, schedule: Q01DX009 (ip), vehicle: saline

Measured: T/C

CCc1ccc(C(=O)NN)cc1
inactive: dose: 6.25 mg/kg/injection, schedule: Q01DX009 (ip), vehicle: saline 100 % of control | dose: 12.5 mg/kg/injection, schedule: Q01DX009 (ip), vehicle: saline 97 % of control | dose: 25.0 mg/kg/injection, schedule: Q01DX009 (ip), vehicle: saline 103 % of control | dose: 25.0 mg/kg/injection, schedule: Q04DX003 (ip), vehicle: saline 94 % of control | dose: 50.0 mg/kg/injection, schedule: Q01DX009 (ip), vehicle: saline 100 % of control | dose: 50.0 mg/kg/injection, schedule: Q04DX003 (ip), vehicle: saline 92 % of control | [1] 124 % of control | [2] 94 % of control | [3] 90 % of control | [4] 94 % of control

CCN(CC)CCC(=O)c1ccccc1
inactive: [5] 95 % of control

CCOC(=O)C(OCc1ccccc1)C(=O)OCC
inactive: [6] 87 % of control | [2] 115 % of control | [7] 104 % of control | [4] 90 % of control | [8] 108 % of control | [9] 90 % of control

CCOC(=O)c1cc(CC)sc1N
inactive: [10] 95 % of control | [11] 108 % of control | [12] 108 % of control

COC(=O)c1c(O)cc(OC)cc1OC
inactive: [13] 111 % of control | [14] 100 % of control | [15] 100 % of control | [16] 95 % of control | [17] 100 % of control | [18] 95 % of control

O=C(O)c1cc[c]([Hg][S]c2ncnc3nc[nH]c23)cc1
inactive: dose: 25.0 mg/kg/injection, schedule: Q01DX009 (ip), vehicle: suspension in saline 119 % of control

COc1ccc(/C(C#N)=C2C=C(Cl)/C(=N/O)C=C/2Cl)cc1
inactive: dose: 100.0 mg/kg/injection, schedule: Q01DX001 (ip), vehicle: Klucel (hydroxypropylcellulose) (HPC) 90 % of control | [13] 95 % of control | dose: 200.0 mg/kg/injection, schedule: Q01DX001 (ip), vehicle: Klucel (hydroxypropylcellulose) (HPC) 90 % of control | [15] 87 % of control | dose: 400.0 mg/kg/injection, schedule: Q01DX001 (ip), vehicle: Klucel (hydroxypropylcellulose) (HPC) 86 % of control | [17] 104 % of control

COC(=O)c1ccc(COc2ccc([N+](=O)[O-])cc2Cl)cc1
inactive: dose: 44.0 mg/kg/injection, schedule: Q01DX009 (ip), vehicle: saline with Tween-80 90 % of control | dose: 66.0 mg/kg/injection, schedule: Q01DX009 (ip), vehicle: saline with Tween-80 90 % of control | [6] 90 % of control | dose: 150.0 mg/kg/injection, schedule: Q01DX009 (ip), vehicle: saline with Tween-80 86 % of control | dose: 176.0 mg/kg/injection, schedule: Q04DX003 (ip), vehicle: saline with Tween-80 100 % of control | [7] 115 % of control | dose: 264.0 mg/kg/injection, schedule: Q04DX003 (ip), vehicle: saline with Tween-80 100 % of control | [8] 105 % of control | [12] 90 % of control

O=C1c2sccc2-c2cccc3cccc1c23
inactive: [19] 96 % of control | [10] 93 % of control | [11] 94 % of control | [12] 86 % of control

COc1cc(Br)c2c(c1OC)C(=O)CC2
inactive: [13] 104 % of control | [14] 100 % of control | [15] 95 % of control | [16] 91 % of control | [17] 100 % of control | [18] 95 % of control

CCCCCCCCCCCCCCCCN(C)c1ccc(C=O)cc1
inactive: [1] 104 % of control and 110 % of control | [2] 118 % of control | [3] 100 % of control and 105 % of control | [4] 109 % of control | [20] 113 % of control | [9] 109 % of control

CC(NC(=O)C(N)C(C)C)C(=O)O (configuration not stated)
inactive: dose: 50.0 mg/kg/injection, schedule: Q01DX005 (ip), vehicle: saline 92 % of control | dose: 100.0 mg/kg/injection, schedule: Q01DX005 (ip), vehicle: saline 97 % of control | dose: 200.0 mg/kg/injection, schedule: Q01DX005 (ip), vehicle: saline 92 % of control

COc1cc(C=O)cc(I)c1O
inactive: dose: 12.5 mg/kg/injection, schedule: Q01DX009 (ip), vehicle: saline sonified 105 % of control | dose: 12.5 mg/kg/injection, schedule: Q04DX003 (ip), vehicle: saline with Tween-80 86 % of control | dose: 25.0 mg/kg/injection, schedule: Q01DX009 (ip), vehicle: saline sonified 94 % of control | dose: 25.0 mg/kg/injection, schedule: Q04DX003 (ip), vehicle: saline with Tween-80 90 % of control | dose: 50.0 mg/kg/injection, schedule: Q01DX009 (ip), vehicle: saline sonified 100 % of control | [19] 100 % of control

O=C(Nc1ccc2ccccc2c1)c1ccccc1
inactive: dose: 100.0 mg/kg/injection, schedule: Q01DX001 (ip), vehicle: saline sonified 95 % of control | dose: 200.0 mg/kg/injection, schedule: Q01DX001 (ip), vehicle: saline sonified 100 % of control | dose: 400.0 mg/kg/injection, schedule: Q01DX001 (ip), vehicle: saline sonified 100 % of control

O=c1[nH]cnc2c1ncn2C1OC(CF)C(O)C1O (configuration not stated)
inactive: dose: 100.0 mg/kg/injection, schedule: Q01DX001 (ip), vehicle: saline 108 % of control | [1] 86 % of control | dose: 200.0 mg/kg/injection, schedule: Q01DX001 (ip), vehicle: saline 108 % of control | [3] 91 % of control | dose: 400.0 mg/kg/injection, schedule: Q01DX001 (ip), vehicle: saline 108 % of control | [20] 86 % of control

C/C(C/C(C)=N\NC(=O)CN)=N/NC(=O)CN
inactive: dose: 33.75 mg/kg/injection, schedule: Q01DX009 (ip), vehicle: saline with Tween-80 104 % of control | dose: 67.5 mg/kg/injection, schedule: Q01DX009 (ip), vehicle: saline with Tween-80 100 % of control | dose: 135.0 mg/kg/injection, schedule: Q01DX009 (ip), vehicle: saline with Tween-80 106 % of control

Cn1c(Cl)nc2c(Cl)nc(Cl)nc21
inactive: dose: 1.0 mg/kg/injection, schedule: Q01DX009 (ip), vehicle: Klucel (hydroxypropylcellulose) (HPC) 105 % of control | dose: 2.0 mg/kg/injection, schedule: Q01DX009 (ip), vehicle: Klucel (hydroxypropylcellulose) (HPC) 100 % of control | dose: 4.0 mg/kg/injection, schedule: Q01DX009 (ip), vehicle: Klucel (hydroxypropylcellulose) (HPC) 110 % of control | dose: 8.0 mg/kg/injection, schedule: Q01DX009 (ip), vehicle: Klucel (hydroxypropylcellulose) (HPC) 105 % of control | dose: 16.0 mg/kg/injection, schedule: Q01DX009 (ip), vehicle: Klucel (hydroxypropylcellulose) (HPC) 100 % of control

O=[N+]([O-])c1cc(C(F)(F)F)cc([N+](=O)[O-])c1N1CCCC(n2cccc2)C1 (configuration not stated)
inactive: [5] 107 % of control | [6] 109 % of control | [7] 118 % of control
